Experimental data: patent US7053175B1, “Synthetic peptides useful in biological assays for detecting infections caused by group O HIV-1 viruses” (Bio-Rad Pasteur, priority 1997, dated 2006)
No end group written: not given here.

Test system: sera from patients infected with group O HIV-1 retroviruses
Assay: Immunoenzymatic test: Test No. 1 (immunoreactivity of peptides coated on microplates)
Assay type: binding, human
Set-up: key to ABSORBANCE: >: signal greater than the reading capacity of the spectrophotometer
Conditions: cyclized peptide 2 μg/ml
Summary of the method: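 Read-out is relative absorbance (A490-A620) after OPD colour development, following peroxidase-labelled goat anti-human IgG+IgM conjugate (30 min, 40° C). Group O HIV-1 patient sera were applied at 1/5 for 30 min at 40° C to wells coated with peptide at 2 μg/ml. Positivity threshold 0.15, from 48 negative sera (mean + 12 SD).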

For “LLNLWGCKNRAICYTSVKWNKT (cysteine pairing not given here) [VAU 22 AA, reference compound]”, the ABSORBANCE (serum 134) was “>”, the ABSORBANCE (serum 402) was “>” and the ABSORBANCE (serum 625) was “>”. The ABSORBANCE (serum 1062) was “>”, the ABSORBANCE (serum 1105*) was 0.099 and the ABSORBANCE (serum 1581) was 1.112. The ABSORBANCE (serum 1702) was “>”, the ABSORBANCE (serum 1754) was 1.263 and the ABSORBANCE (serum 2294) was “>”. The ABSORBANCE (serum 2312) was “>”, the ABSORBANCE (serum 2313) was “>” and the ABSORBANCE (serum 2352) was “>”. For the same sequence, the ABSORBANCE (serum 2551) was “>”, the ABSORBANCE (serum 2700) was “>” and the ABSORBANCE (serum 3016) was “>”. For the same sequence, the ABSORBANCE (serum 3136) was “>”, the ABSORBANCE (serum 3235) was “>” and the ABSORBANCE (serum 3236) was “>”. For the same sequence, the ABSORBANCE (serum 3302) was “>”, the ABSORBANCE (serum 3482) was “>” and the ABSORBANCE (serum 3529) was “>”. For the same sequence, the ABSORBANCE (serum 3600*) was “>”, the ABSORBANCE (serum 3627*) was “>” and the ABSORBANCE (serum 3637) was 0.779. For the same sequence, the ABSORBANCE (serum 3653) was 1.441, the ABSORBANCE (serum 3771) was “>” and the ABSORBANCE (serum 3884*) was “>”. For the same sequence, the ABSORBANCE (serum 3891) was “>”, the ABSORBANCE (serum 3935) was 0.138 and the ABSORBANCE (serum 3945) was “>”. For the same sequence, the ABSORBANCE (serum 4021*) was 0.050, the ABSORBANCE (serum 4288*) was 2.337 and the ABSORBANCE (serum 4364) was “>”. The ABSORBANCE (serum 4434) was 2.273, the ABSORBANCE (serum 4477) was 2.511 and the ABSORBANCE (serum 4489*) was 1.318. For the same sequence, the ABSORBANCE (serum 5149*) was “>”, the ABSORBANCE (serum 5164) was “>” and the ABSORBANCE (serum 5210) was “>”. For the same sequence, the ABSORBANCE (serum 5270*) was “>”, the ABSORBANCE (serum 5373) was 1.359 and the ABSORBANCE (serum 5453) was 1.267. The ABSORBANCE (serum 5766*) was “>”, the ABSORBANCE (serum 5931) was 0.202 and the ABSORBANCE (serum 5969*) was 2.491. The ABSORBANCE (serum 6111) was “>”, the ABSORBANCE (serum 6165) was “>” and the ABSORBANCE (serum 6198*) was “>”. It also gave an ABSORBANCE (serum 6295*) of 0.972, an ABSORBANCE (serum 6487) of 2.889 and an ABSORBANCE (serum 6512*) of 0.120. For the same sequence, the ABSORBANCE (serum 6627) was “>”, the ABSORBANCE (serum 6689*) was “>” and the ABSORBANCE (serum 6697) was “>”. The ABSORBANCE (serum 6782) was 2.190, the ABSORBANCE (serum 6891) was 0.359 and the ABSORBANCE (serum 6976*) was “>”. For the same sequence, the ABSORBANCE (serum 6998) was “>”, the ABSORBANCE (serum 7007) was “>” and the ABSORBANCE (serum 7120) was “>”. The ABSORBANCE (serum 7212) was “>”, the ABSORBANCE (serum 7258*) was “>” and the ABSORBANCE (serum 7297*) was “>”. For the same sequence, the ABSORBANCE (serum 7439) was “>”, the ABSORBANCE (serum 7443) was 0.920 and the ABSORBANCE (serum DUR*) was 0.118. For the same sequence, the ABSORBANCE (serum ESS*) was “>”, the ABSORBANCE (serum HAD) was 0.789 and the ABSORBANCE (serum VAU*) was “>”.
